According to ChEMBL document CHEMBL1201862, “PubChem BioAssay data set” (2004):
Calls of active or inactive are those of the source.

Legend:
[1] = target: T1, Probable nicotinate-nucleotide adenylyltransferase (Staphylococcus aureus (strain N315), UniProt P65502); type: functional, Staphylococcus aureus subsp. aureus N315;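 for IC50 Mean: confirmatory dose-response retesting of NadD inhibitor hits first found in an ultra-high-throughput screen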
[2] = target: T1, Probable nicotinate-nucleotide adenylyltransferase; type: functional, Staphylococcus aureus subsp. aureus N315; settings: read-out: IC50_Mean
Beta-lactamase [3] = target: Beta-lactamase (Salmonella choleraesuis (strain SC-B67), UniProt Q5J463); experiment: Epi-absorbance-based counterscreen for selective VIM-2 inhibitors: dose response biochemical high throughput screening assay to identify inhibitors of TEM-1 serine-beta-lactamase.
Beta-lactamase [4] = target: T2, Beta-lactamase (Pseudomonas aeruginosa, UniProt Q79MP6); experiment: IMP-1 metallo-beta-lactamase inhibitors, dose response, selectivity assay for VIM-2 inhibitor project, biochemical, epi-absorbance (AID 1920)
Beta-lactamase [5] = target: T2, Beta-lactamase; experiment: […] counterscreen for selective VIM-2 inhibitors: dose response biochemical high throughput screening assay to identify inhibitors of IMP-1 metallo-beta-lactamase.
[6] = target: Nuclear receptor subfamily 5 group A member 2 (Homo sapiens, UniProt O00482); type: functional, cell-based;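 note: HEK293T cells transfected with LRH-1 and a StAR promoter luciferase reporter; potency for inhibitors that lower LRH-1 driven reporter light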
Steroidogenic factor 1 = Steroidogenic factor 1 (Homo sapiens, UniProt Q13285); experiment: Counterscreen for inverse agonists of the liver receptor homolog-1 (LRH-1; NR5A2): Luminescence-based cell-based high throughput dose response assay to identify inverse agonists of the Steroidogenic Factor 1 Nuclear Receptor (SF1; NR5A1).; type: functional
[7] = StAR promoter reporter inhibition counter-screen, dose response, counter-screen for LRH-1 inverse agonist project, cell-based, luminescence, luciferase reporter (AID 651969); type: functional
[8] = Fluorescence-based cell-based high throughput dose response assay for inhibitors of the interaction of nucleotide-binding oligomerization domain containing 2 (NOD2) and the receptor-interacting serine-threonine kinase 2 (RIPK2).; type: functional; settings: Homo sapiens
Beta Lactamase = Beta Lactamase (Pseudomonas aeruginosa, UniProt Q932Y6); experiment: beta-lactamase reporter inhibitor potency, dose response, artefact control for NOD2-RIPK2 interaction inhibitor project, BLA reporter cells, FRET fluorescence (AID 651552); type: functional, cell-based
Fatty acid synthase [9] = target: T3, Fatty acid synthase (Homo sapiens, UniProt P49327); experiment: FAS thioesterase domain inhibitors, dose response, biochemical, endpoint fluorescence intensity, uHTS hits (AID 624327); type: functional;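 note: fluorescence from hydrolysis of an O-methyl fluorescein acyl ester substrate by the enzyme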
Fatty acid synthase [10] = target: T3, Fatty acid synthase; experiment: FAS thioesterase domain inhibitors, dose response, biochemical, kinetic fluorescence intensity (AID 624326); type: functional;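 note: rate of fluorescence rise from hydrolysis of a fluorogenic O-methyl fluorescein ester substrate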
Vero = experiment: Vero cell toxicity, dose response, cytotoxicity control, plate reader, cherry-pick samples (AID 687020); type: functional, cell-based; settings: Chlorocebus sabaeus
A549 = experiment: A549 cell toxicity, dose response, cytotoxicity control, plate reader, cherry-pick samples (AID 687028); type: functional, cell-based; settings: Homo sapiens
[11] = T. cruzi intracellular amastigote growth inhibition, dose response, imaging, CA-I/72 strain, bovine embryo skeletal muscle, dry powder (AID 651885); type: functional, cell-based
[12] = PAX2 cell-based inhibition, dose response, selectivity assay for PAX8 inhibitor project, plate reader, dry powder samples (AID 743048); type: functional;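 note: HEK293 cells carrying a WT1 promoter luciferase reporter driven by expressed Pax2; potency is for inhibition of Pax2 driven reporter signal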
[13] = cytotoxicity in COV362 ovarian cancer cells, dose response, cytotoxicity control for PAX8 inhibitor project, cell-based, plate reader, dry powder, SA12 (AID 743144); type: functional
[14] = A2780 ovarian cancer cell cytotoxicity, dose response, cytotoxicity control, plate reader, dry powder samples (AID 743046); type: functional, cell-based
[15] = IGROV1 ovarian cancer cell cytotoxicity, dose response, PAX8 inhibitor project, plate reader, dry powder samples (AID 743043); type: functional, cell-based; settings: IGROV-1
[16] = cytotoxicity in COV434 cells, dose response, cytotoxicity control for PAX8 inhibitor project, cell-based, plate reader, dry powder, SA7 (AID 743145); type: functional
[17] = target: T4, Methionyl-tRNA synthetase, putative (Trypanosoma brucei brucei, UniProt Q38C91); type: functional, Trypanosoma brucei brucei strain 927/4 GUTat10.1
T4 sequence (Q38C91 whole entry): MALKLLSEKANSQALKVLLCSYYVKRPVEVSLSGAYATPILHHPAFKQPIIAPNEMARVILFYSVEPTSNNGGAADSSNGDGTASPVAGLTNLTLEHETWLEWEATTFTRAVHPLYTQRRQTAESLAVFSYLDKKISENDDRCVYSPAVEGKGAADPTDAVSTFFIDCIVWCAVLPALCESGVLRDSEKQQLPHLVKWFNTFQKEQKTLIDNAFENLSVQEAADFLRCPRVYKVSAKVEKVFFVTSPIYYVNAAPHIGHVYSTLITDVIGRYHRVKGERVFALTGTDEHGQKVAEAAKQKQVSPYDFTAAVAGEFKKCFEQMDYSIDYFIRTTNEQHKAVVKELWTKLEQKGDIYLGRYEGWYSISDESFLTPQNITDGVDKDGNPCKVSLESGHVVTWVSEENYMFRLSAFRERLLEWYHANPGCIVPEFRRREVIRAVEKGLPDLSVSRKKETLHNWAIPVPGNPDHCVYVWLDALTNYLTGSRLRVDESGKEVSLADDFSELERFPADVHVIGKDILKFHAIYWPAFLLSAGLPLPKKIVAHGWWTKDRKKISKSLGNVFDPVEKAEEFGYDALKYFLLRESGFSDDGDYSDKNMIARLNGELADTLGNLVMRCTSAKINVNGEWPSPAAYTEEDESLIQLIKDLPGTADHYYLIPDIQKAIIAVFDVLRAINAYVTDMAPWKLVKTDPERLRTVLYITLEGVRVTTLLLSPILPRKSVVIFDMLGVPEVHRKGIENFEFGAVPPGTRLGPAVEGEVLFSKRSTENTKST

[18] = Counterscreen for inhibitors of Trypanosoma brucei methionyl tRNA synthetase (MetRS): Luminescence-based cell-based high throughput dose response assay to identify compounds that are cytotoxic to Jurkat human T lymphocyte cells.; type: functional
[19] = target: T4, Methionyl-tRNA synthetase, putative; type: functional, Trypanosoma brucei brucei strain 927/4 GUTat10.1; remark: listed apart in the source
Hexokinase = target: T5, Hexokinase (Trypanosoma brucei, UniProt Q38C41); experiment: Confirmation assay for inhibitors of Trypanosoma brucei hexokinase 1-Analogue-first series. [Related pubchem assays (depositor defined):AID1430, AID1632, AID2516, AID2560, AID2579, AID2600, AID449725, AID492951]; type: functional
T5 sequence (Q38C41 whole entry): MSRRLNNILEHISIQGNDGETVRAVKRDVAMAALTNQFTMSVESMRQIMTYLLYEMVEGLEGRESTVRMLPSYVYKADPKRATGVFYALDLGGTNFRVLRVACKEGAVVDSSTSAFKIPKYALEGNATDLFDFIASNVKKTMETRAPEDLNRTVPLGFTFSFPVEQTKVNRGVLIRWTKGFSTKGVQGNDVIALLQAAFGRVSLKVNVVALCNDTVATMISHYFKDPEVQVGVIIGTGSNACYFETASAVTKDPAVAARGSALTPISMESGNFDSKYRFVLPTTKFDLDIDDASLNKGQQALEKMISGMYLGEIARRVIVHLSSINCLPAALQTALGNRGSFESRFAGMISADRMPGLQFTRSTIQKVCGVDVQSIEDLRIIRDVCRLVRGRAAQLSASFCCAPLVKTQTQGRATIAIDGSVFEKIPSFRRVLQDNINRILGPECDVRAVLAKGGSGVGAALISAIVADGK

[20] = target: Glucose-6-phosphate 1-dehydrogenase (Homo sapiens, UniProt P11413); experiment: human G6PD enzyme inhibitors, dose response, selectivity assay for P. falciparum G6PD inhibitor project, biochemical, fluorescence (AID 504792); type: functional
[21] = HeLa cell cytotoxicity, dose response, cytotoxicity control for MgcRacGAP inhibitor project (AID 624300); type: functional
[22] = target: T6, Rac GTPase-activating protein 1 (Homo sapiens, UniProt Q9H0H5); experiment: MgcRacGAP GTPase-activating activity inhibitors, confirmation, biochemical, ADP Hunter fluorescence, primary and confirmatory (AID 624330); type: functional
T6 sequence (Q9H0H5 whole entry): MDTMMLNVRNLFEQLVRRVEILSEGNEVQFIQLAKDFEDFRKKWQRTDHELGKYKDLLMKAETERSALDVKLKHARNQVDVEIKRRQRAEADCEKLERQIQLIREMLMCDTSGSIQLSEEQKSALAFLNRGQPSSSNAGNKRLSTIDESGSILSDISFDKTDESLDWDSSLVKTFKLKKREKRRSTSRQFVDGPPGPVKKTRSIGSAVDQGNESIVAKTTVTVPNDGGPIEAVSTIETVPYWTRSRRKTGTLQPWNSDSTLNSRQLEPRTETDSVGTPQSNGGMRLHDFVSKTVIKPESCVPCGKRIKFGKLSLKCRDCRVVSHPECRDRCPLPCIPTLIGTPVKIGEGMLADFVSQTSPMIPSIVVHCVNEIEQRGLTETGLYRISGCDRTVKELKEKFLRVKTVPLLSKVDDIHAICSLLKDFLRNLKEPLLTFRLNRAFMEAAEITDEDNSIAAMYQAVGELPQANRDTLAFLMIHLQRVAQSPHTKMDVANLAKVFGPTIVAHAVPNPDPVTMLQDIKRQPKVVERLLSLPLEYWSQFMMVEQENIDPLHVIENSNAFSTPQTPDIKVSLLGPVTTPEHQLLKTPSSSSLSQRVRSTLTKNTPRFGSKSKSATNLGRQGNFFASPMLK

[23] = target: SWI/SNF-related matrix-associated actin-dependent regulator of chromatin subfamily A member 2 (Homo sapiens, UniProt P51531); experiment: Luminescence-based cell-based high throughput dose response assay to identify activators of the function of SWI/SNF related, matrix associated, actin dependent regulator of chromatin, subfamily a, member 2 (SMARCA2, BRM).; type: functional
[24] = Counterscreen for activators of the function of SWI/SNF related, matrix associated, actin dependent regulator of chromatin, subfamily a, member 2 (SMARCA2, BRM): Luminescence-based cell-based high throughput dose response assay to identify non-selective compounds using the VP16 reporter assay.; type: functional

Chain of Beta Lactamase (Q932Y6 whole entry, the tested form may be a part): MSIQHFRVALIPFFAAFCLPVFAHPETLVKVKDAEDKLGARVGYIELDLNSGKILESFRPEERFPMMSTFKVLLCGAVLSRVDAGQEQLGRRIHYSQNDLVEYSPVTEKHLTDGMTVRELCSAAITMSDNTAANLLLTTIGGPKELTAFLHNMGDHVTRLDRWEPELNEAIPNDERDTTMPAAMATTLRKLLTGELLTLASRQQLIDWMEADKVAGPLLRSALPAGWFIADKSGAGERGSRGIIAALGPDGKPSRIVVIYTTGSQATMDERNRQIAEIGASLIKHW
T3 sequence (P49327 whole entry, the tested form may be a part): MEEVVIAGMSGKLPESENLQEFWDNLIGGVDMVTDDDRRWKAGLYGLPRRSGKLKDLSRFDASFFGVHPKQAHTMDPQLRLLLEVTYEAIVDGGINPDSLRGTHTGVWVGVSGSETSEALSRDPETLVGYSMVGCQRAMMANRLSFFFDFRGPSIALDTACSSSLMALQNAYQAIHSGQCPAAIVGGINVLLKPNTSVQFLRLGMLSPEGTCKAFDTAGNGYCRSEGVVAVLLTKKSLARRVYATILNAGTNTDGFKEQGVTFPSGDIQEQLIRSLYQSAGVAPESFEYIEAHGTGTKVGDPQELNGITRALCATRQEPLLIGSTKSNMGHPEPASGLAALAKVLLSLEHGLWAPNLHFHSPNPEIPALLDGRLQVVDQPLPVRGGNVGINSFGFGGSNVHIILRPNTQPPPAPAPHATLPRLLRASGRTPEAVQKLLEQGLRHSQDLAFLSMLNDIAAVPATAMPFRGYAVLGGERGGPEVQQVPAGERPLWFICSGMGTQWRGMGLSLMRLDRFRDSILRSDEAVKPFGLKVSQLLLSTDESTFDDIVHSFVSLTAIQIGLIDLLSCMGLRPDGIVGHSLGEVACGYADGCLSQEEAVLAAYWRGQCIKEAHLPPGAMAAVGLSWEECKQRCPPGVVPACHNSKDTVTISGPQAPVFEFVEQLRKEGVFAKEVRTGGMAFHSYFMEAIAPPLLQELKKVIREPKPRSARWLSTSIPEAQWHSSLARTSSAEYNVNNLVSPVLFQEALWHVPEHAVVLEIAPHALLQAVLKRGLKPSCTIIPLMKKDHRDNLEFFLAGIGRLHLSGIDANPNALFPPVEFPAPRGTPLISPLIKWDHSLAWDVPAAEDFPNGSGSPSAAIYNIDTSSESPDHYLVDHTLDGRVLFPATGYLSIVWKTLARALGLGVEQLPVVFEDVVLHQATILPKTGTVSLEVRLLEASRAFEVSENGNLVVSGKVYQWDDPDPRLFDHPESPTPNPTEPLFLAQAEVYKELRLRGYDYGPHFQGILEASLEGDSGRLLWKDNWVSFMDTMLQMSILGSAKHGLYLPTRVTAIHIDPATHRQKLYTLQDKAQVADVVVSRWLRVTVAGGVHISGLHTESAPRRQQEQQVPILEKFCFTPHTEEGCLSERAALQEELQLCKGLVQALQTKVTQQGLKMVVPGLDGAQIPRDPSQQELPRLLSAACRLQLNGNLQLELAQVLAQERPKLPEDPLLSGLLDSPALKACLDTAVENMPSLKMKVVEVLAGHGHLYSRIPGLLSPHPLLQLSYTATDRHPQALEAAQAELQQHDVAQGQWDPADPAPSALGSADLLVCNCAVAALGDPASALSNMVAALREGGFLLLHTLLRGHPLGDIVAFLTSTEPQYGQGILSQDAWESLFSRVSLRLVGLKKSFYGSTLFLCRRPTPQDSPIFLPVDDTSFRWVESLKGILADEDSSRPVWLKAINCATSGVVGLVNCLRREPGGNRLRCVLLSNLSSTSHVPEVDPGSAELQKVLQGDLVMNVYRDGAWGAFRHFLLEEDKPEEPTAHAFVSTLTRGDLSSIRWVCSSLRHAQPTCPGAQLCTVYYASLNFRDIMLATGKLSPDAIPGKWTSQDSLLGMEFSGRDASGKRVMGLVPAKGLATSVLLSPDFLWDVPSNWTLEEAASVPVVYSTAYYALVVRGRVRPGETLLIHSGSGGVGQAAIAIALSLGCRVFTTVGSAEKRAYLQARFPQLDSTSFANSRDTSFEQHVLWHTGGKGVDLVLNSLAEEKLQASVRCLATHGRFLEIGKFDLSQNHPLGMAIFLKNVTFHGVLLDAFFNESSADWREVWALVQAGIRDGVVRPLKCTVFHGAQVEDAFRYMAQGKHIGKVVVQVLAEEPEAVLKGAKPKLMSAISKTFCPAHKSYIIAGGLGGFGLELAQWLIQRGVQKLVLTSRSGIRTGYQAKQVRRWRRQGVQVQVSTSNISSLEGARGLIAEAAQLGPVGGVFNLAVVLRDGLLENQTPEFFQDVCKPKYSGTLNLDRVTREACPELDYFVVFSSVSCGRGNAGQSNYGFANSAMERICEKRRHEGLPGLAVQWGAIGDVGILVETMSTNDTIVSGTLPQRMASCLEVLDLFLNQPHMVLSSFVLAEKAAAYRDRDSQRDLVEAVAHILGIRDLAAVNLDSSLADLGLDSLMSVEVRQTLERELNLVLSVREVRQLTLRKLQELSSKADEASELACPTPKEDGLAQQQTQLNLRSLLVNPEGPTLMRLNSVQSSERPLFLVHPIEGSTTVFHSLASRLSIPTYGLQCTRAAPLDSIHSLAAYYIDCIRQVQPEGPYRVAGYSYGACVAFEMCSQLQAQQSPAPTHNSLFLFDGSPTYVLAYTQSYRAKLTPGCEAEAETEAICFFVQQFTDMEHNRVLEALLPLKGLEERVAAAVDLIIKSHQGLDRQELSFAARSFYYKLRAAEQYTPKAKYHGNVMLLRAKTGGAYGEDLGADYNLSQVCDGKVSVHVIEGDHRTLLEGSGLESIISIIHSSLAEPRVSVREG
T1 sequence (P65502 whole entry): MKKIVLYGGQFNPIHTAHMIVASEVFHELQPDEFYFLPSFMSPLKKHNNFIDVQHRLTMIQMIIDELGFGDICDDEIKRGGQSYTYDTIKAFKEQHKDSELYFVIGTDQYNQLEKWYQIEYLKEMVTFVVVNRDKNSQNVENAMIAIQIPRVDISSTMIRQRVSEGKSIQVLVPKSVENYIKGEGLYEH
T2 sequence (Q79MP6 whole entry): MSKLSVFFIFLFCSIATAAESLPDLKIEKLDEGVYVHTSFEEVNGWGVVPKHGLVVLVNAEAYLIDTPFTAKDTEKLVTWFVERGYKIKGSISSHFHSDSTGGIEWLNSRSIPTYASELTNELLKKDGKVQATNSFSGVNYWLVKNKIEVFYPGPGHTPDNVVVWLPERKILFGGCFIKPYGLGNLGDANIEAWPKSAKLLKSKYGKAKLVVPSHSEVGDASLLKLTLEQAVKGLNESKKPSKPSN
Chain of Beta-lactamase (Salmonella choleraesuis (strain SC-B67), UniProt Q5J463) (Q5J463 whole entry): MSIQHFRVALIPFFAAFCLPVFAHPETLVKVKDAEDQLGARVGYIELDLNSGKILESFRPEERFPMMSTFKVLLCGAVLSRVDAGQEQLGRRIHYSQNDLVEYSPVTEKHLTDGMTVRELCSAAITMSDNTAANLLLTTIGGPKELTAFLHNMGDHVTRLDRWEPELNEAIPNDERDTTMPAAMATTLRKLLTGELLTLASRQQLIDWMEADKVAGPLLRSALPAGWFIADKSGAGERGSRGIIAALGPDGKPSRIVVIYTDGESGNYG
Chain of Nuclear receptor subfamily 5 group A member 2 (O00482 whole entry): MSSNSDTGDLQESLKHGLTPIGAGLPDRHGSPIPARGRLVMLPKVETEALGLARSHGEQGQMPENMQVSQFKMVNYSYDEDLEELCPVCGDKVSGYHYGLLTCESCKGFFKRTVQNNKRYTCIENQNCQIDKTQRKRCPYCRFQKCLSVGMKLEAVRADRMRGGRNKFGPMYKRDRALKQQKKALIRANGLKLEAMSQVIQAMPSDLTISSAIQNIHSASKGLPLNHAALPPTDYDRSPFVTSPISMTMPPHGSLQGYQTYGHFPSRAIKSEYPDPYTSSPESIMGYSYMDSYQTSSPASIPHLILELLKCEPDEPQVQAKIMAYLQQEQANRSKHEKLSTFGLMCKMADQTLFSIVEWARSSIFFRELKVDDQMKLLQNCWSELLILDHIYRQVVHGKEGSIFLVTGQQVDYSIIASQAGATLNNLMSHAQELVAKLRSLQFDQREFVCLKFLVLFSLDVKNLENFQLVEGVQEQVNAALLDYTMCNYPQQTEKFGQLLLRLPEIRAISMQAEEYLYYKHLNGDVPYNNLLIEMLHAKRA
Chain of Steroidogenic factor 1 (Q13285 whole entry): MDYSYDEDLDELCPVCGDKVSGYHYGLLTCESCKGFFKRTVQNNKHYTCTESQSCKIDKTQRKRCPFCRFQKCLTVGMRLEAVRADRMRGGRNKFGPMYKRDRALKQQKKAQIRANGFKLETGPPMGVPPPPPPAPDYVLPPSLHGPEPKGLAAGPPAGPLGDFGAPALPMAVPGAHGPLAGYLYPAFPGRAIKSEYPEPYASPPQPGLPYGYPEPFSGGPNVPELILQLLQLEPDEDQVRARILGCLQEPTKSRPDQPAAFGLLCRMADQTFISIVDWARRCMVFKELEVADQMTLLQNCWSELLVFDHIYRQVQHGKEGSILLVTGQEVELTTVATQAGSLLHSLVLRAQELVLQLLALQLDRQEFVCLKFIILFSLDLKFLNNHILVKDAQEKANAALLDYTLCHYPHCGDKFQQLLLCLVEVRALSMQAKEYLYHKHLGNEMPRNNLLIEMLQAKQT
Chain of Glucose-6-phosphate 1-dehydrogenase (P11413 whole entry): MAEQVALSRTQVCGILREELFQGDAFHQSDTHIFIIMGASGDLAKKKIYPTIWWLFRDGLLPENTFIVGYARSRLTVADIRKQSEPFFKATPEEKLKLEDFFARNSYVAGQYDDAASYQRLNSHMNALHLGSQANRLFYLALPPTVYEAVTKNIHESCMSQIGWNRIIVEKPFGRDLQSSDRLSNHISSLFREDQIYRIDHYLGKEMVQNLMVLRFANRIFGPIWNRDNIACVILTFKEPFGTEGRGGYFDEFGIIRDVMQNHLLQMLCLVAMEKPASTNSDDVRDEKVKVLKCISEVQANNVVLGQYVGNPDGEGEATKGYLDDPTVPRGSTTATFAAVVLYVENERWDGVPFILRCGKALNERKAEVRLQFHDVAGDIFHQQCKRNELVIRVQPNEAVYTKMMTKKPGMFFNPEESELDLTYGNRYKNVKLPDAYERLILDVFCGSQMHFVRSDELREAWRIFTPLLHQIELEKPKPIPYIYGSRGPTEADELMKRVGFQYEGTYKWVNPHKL

CCc1cccc2c1NC(=O)C21N2CCCC2C(C(=O)c2ccc3ccccc3c2)C12C(=O)Nc1ccccc12 (configuration not stated)
IC50 [1]: 16.2 µM (active) | IC50 [2]: 35.7 µM (active)

CCOC(=O)N=S(N)(=O)c1ccccc1 (configuration not stated)
IC50 (Beta-lactamase [3]): > 59.6 µM (inactive) | IC50 (Beta-lactamase [4]): > 59.6 µM (inactive) | IC50 (Beta-lactamase [5]): > 59.6 µM (inactive)

COc1ccc(OCCNC(=O)C2(C)CCN2Cc2ccc(SC)cc2)cc1 (configuration not stated)
IC50 [6]: 5.57 µM (active) | IC50 (Steroidogenic factor 1): 3.51 µM (active) | IC50 [7]: 35.9 µM (inactive)

CCOC(=O)[C@]12Cc3ccc(C)cc3[C@H]1N(C1CCCCC1)C(=O)c1cc(OC)ccc12
IC50 [8]: 2.32 µM (active) | IC50 (Beta Lactamase): 19.1 µM (inactive) | IC50 (Fatty acid synthase [9]): 5.7 µM (active) | IC50 (Fatty acid synthase [10]): 5.14 µM (active)

CCC(C)[C@H](NC(=O)[C@@H]1Cc2ccccc2CN1)C(=O)NCc1ccc(C)cc1 (some centres not stated)
AC50 (Vero): 29.5 µM (active) | AC50 (A549): 20.9 µM (active)

CC(C)N(C)C(=O)c1cccc(NC(=O)c2ccncc2)c1OCCCN(C)C(=O)OC(C)(C)C
IC50 [11]: 10.2 µM (inconclusive)

C[C@@H]1CN([C@@H](C)CO)C(=O)c2cccc(NC(=O)c3ccncc3)c2O[C@H]1CN(C)Cc1ccc(C(F)(F)F)cc1
IC50 [11]: 10 µM (inconclusive)

N#C[C@H]1[C@@H](c2ccc(C#Cc3cccc(F)c3)cc2)[C@@H](CO)N1C(=O)C1CCCC1
AC50 [12]: > 70 µM (inactive) | AC50 [13]: > 70 µM (inactive) | AC50 [14]: 17.6 µM (active) | AC50 [15]: 10.6 µM (active) | AC50 [16]: > 70 µM (inactive)

C/C(CC(=O)Nc1cccc(Br)c1)=N\NC(=O)c1ccc(O)cc1O
IC50 [17]: 1.23 µM (active) | IC50 [18]: 83.3 µM (inactive) | IC50 [19]: 0.756 µM (active)

COc1ccc(-n2sc3ccccc3c2=O)cc1
IC50 (Hexokinase): 5.35 µM (active) | IC50 [20]: 9.6 µM (active) | IC50 [8]: 5.79 µM (active) | IC50 (Beta Lactamase): 27 µM (inactive) | CC50 [21]: 79.7 µM (active) | IC50 [22]: 34.5 µM (active) | EC50 [23]: > 91.2 µM (inactive) | EC50 [24]: > 91.2 µM (inactive)
